Columns and labels:
[1] = system: P388/ADR cells; assay: cells; settings: P388/ADR
Protocol: MDA435/LCC6 and P388 (both parent and MDR subtype) were maintained in DMEM and RPMI 1640 culture medium supplemented with 10% FBS, respectively. RPMI 1640 media also contained 100 units/ml penicillin and 100 μg/ml streptomycin. Cells were cultured at 37° C. in a humidified atmosphere with 5% CO2. A solution of 0.05% trypsin-EDTA was used to detach the MDA435/LCC6 (both wild type and MDR subtype) cells.
Cell proliferation assay. MDA435/LCC6 and P388 (both parent and MDR subtype) cells were seeded at 2000 and 5000 cells per well, respectively, in 96-well plates. Varying concentrations of anticancer drugs (Doxorubicin, Daunorubicin, Vincristine, Vinblastine, taxol, Mitoxantrone) with or without the flavonoid dimers were added in a final volume of 200 μl and cells were grown for 4 and 3 days for MDA435/LCC6 and P388 (both parent and MDR subtype) cells, respectively. For MDA435/LCC6 (both parent and MDR subtype), the corresponding drugs were added after cell attachment (24 hr incubation). To measure cell proliferation, the cell Titer 960 Aqueous Assay (Promega) was used according to the manufacturer's instructions. Briefly, MTS (2 mg/ml) and PMS (0.92 mg/ml) were mixed in a ratio of 20:1. 30 μl MTS/PMS mixture was added into each well and incubated for 2 hours at 37° C. Optical absorbance at 490 nm was then recorded using an ELISA microtiter plate reader (Bio-Rad). Each experiment was done at least in triplicate and repeated twice. Cytotoxicity of the anticancer drugs was expressed as the fraction of the cells survived relative to the untreated DMSO (0.05%) solvent controls.

[2] = system: P388/ADR cells; assay: Doxorubicin accumulation; assay type: cell-based, murine; settings: 10 μM doxorubicin, 2 h, FIG. 11A
[3] = system: tested MDR cell lines (drug resistant breast cancer and leukemia cells); assay type: cell-based
Description: Cell proliferation assay.

[4] = system: pentamidine-resistant L. enriettii LePentR50 promastigotes; assay: microbe, parasite or virus in culture
[5] = system: SSG-resistant L. donovani Ld39 promastigotes; assay: microbe, parasite or virus in culture; assay type: cell-based, Leishmania donovani
[6] = system: LeMDR1 knockout (LeMDR1 −/−) L. enriettii; assay: Leishmania cell viability (MTS) assay; assay type: cell-based, Leishmania enriettii; settings: LeMDR1 −/−
Description: (§1) Cell lines and Cell Culture.

[7] = system: LeMDR1 overexpressed L. enriettii (LeV160); assay: Leishmania cell viability (MTS) assay; assay type: cell-based, Leishmania enriettii; settings: LeV160
Description: as §1

[8] = system: wild type L. enriettii (Le); assay: Leishmania cell viability (MTS) assay; assay type: cell-based, Leishmania enriettii; settings: Le wild type
Protocol: Cell lines and Cell Culture. Promastigotes of Leishmania enriettii (LePentR50, Le wild type, LeMDR1 −/− and LeMDR1-overexpressed LeV160 mutants) and Leishmania donovani (LdAG83, Ld2001 and Ld39) were employed in this study. The former is a natural infective strain of guinea pig and the latter is a clinical strain, which may cause visceral leishmaniasis in human. Both strains were cultured in Schneider's Drosophila Medium (Invitrogen), pH 6.9 supplemented with 10% (v/v) heat inactivated fetal calf serum (Hyclone) with 4 mM glutamine (Sigma) and 25 μg/mL gentamicin solution (Invitrogen), at 27° C. for 4 days (Cloning and functional analysis of an extrachromosomally amplified multidrug resistance-like gene in Leishmania enriettii. Mol. Biochem. Parasitol 1993, 60, 195-208).
Promastigotes of LeV160 were culture in the presence of 160 μg/mL vinblastine. No pentamidine and vinblastine (Sigma) was added to the Le wild type and LeMDR1 −/− mutant.
The viability of promastigotes was determined by the Cell Titer 96® Aqueous Assay (Promega) that employs a tetrazolium compound (MTS) and electron coupling reagent, phenazine methosulfate (PMS). Promastigotes were seeded into 96-well flat bottom microtiter plate at 1×10^5 cells per well in a final volume of 100 μL medium. To determine the cytotoxic effects of flavonoid dimers to the parasites, various concentrations of flavonoid dimers were added to the promastigotes. To determine the reversal effects of flavonoid dimers with different spacer lengths, various concentrations of antileishmanial drugs, one of pentamidine or SSG, vinblastine and puromycin was added to the wells with or without flavonoid dimers. The parasites were incubated at 27° C. for 72 hrs. Each concentration of antileishmanials with or without the flavonoid dimers was tested in triplicates in each experiment. A 2 mg/mL MTS and 0.92 mg/mL PMS were mixed at a ratio of 20:1 (MTS: PMS). […] After 4 hrs of incubation, the OD values were determined at 490 nm using automatic microtiter plate reader (Bio-Rad).

O=c1cc(-c2ccc(OCCOCCOCCOCCOc3ccc(-c4cc(=O)c5c(O)cc(O)cc5o4)cc3)cc2)oc2cc(O)cc(O)c12 [Compound 9d, 1,13-Bis[4′-((5,7-dihydroxy)-4H-chromen-4-on-2-yl)phenyl]-1,4,7,10,13-pentaoxamidecane]
reversal of resistance to taxol, vincristine and vinblastine ([1]; 5 μM 9d): completely reverse the resistance of P388/ADR to almost the sensitive level | effect on mitoxantrone resistance ([1]; 9d): no effect | saturating concentration for reversing doxorubicin and daunorubicin resistance ([1]; FIG. 8B, 9B): about 5 μM | RF, daunorubicin ([1]; daunorubicin + 5 μM 9d or VP): 20 | RF, doxorubicin ([1]; doxorubicin + 5 μM 9d): 14 | RF, mitoxantrone ([1]; mitoxantrone + 5 μM 9d): 2 | RF, taxol ([1]; taxol + 5 μM 9d): 55 | RF, vinblastine ([1]; vinblastine + 5 μM 9d): 22 | RF, vincristine ([1]; vincristine + 5 μM 9d): 66 | increase of doxorubicin accumulation, folds of control [2]: about 2 folds | increase of cytotoxicity of anticancer drugs [3]: 6-50 RF | cytotoxicity under accumulation conditions ([4]; LePentR50, 60 μM 9d, 3 hours, data not shown): did not result in any cytotoxicity | pentamidine sensitization ([4]; LePentR50, FIG. 18A): ~3.7 fold | toxicity of modulator alone ([4]; LePentR50, up to 6 μM): No toxicity | EC50 ([4]; read-out: EC50 (concentration resulting in 50% survival of LePentR50 at 60 μg/ml pentamidine), co-treatment with 60 μg/ml pentamidine, FIG. 15): ~0.94 µM | IC50 ([4]; read-out: IC50(μM) of synthetic flavonoid, LePentR50, cytotoxicity of compound alone, 72 hrs): > 200 µM | reduction of SSG resistance level ([5]; Ld39, 4 μM, FIGS. 17A and 17B): back to the level of the sensitive strain | SSG sensitization ([5]; Ld39, FIG. 18B): 3.9 fold | IC50 ([5]; cytotoxicity of compound alone, 72 hrs, read-out: IC50(μM) of synthetic flavonoid, Ld39): 10 ± 0.9 µM | pentamidine sensitization [6]: 4.1 fold | decrease of IC50 of pentamidine [7]: ~1.9 fold | decrease of IC50 of pentamidine [8]: about 3 fold

From patent US8710097B2, “Flavonoid dimers and methods of making and using such” (The Hong Kong Polytechnic University, priority 2006, dated 2014)
